Results: US10799442B2, “Compounds useful in the treatment and/or care of the skin, hair, nails, and/or mucous membranes” (LUBRIZOL ADVANCED MATERIALS, INC., priority 2015, dated 2020)

How the values were obtained:
[1] = tested on: MYC; assay: Modulation of stem cell markers in HEKa, Real Time PCR Arrays (MYC mRNA); type: cell-based, Human; details: 48 hours
Method: (§1) The candidate compound is evaluated for the modulation of several stem cell markers, those transcription factors regulated by miRNA145 (SOX2, OCT4, KLF4 and MYC). Gene expression profiles are analyzed by Real Time PCR Arrays using a 96-well panel for use with SYBR® Green (BioRad) to detect mRNA expression levels of stem cell markers plus three housekeeping genes, and five controls, in Human Epidermal Keratinocytes from adult (HEKa) (Cascade Biologics).
(§2) HEKa cells are seeded at 6.0×10^5 cells/well in 6-well plates and incubated in culture medium, Epilife with defined Growth Supplement (EDGS) (Cascade Biologics), for 24 hours at 37° C. in a water-saturated atmosphere of 95% air and 5% CO2. After 24 hours, the medium is removed and the cells are incubated with the synthetic peptide DD14024 at several concentrations in a culture medium. Cells are incubated with culture medium only and these provide the basal conditions. After 48 hours of treatment at 37° C. in a CO2 incubator, the cells are lysed directly in the wells, and RNA is purified following the protocol described on the RNeasy Mini kit (Qiagen) according to the manufacturer's protocol. After RNA elution, quantification and analysis of purity of RNA samples are performed with a biophotometer (Eppendorf). For each sample, 2 μg of high quality RNA is retrotranscribed with iScript Advanced (BioRad) in a final volume of 20 μl. The complete reaction mix is incubated in a thermal cycler (Eppendorf) at 42° C. for 30 minutes and the reaction is stopped at 85° C. for 5 minutes (?). Complementary DNA is amplified by qPCR in a real-time PCR thermocycler (BioRad) using SYBR Green Supermix (BioRad) in the 96-well panel for use with SYBR® Green (BioRad). SYBR Green binds to double-stranded DNA molecules and emits fluorescence which is quantified; the fluorescence intensity is proportional to the amount of the product in the PCR reaction. […] Fold change relative to the expression of the sample genes and reference genes is calculated using normalized expression (ΔΔ(Ct)) method using CFX Manager Software (BioRad). […]

[2] = tested on: KLF4; assay: Modulation of stem cell markers in HEKa, Real Time PCR Arrays (KLF4 mRNA); type: cell-based, Human; details: 48 hours
Method: as §1, §2

[3] = tested on: SOX2; assay: Modulation of stem cell markers in HEKa, Real Time PCR Arrays (SOX2 mRNA); type: cell-based, Human; details: 48 hours
Method: as §1, §2

[4] = tested on: p63; assay: Activation of the pool of epidermal stem cell in reconstructed human epidermal tissue (RHE), p63 immunohistochemistry; type: cell-based; details: p63 immunofluorescence, 10 μg/ml, 24 hours
Method: Therefore, an increase in the expression of p63 would mean a higher regenerative potential compared to basal conditions.
The SkinEthic human tissue models (RHE) are removed from the agarose-nutrient solution in the multiwell plate immediately after arrival and are placed in a 6-well plate in which each well has previously be filled with SkinEthic Growth Medium (EPISKIN). After overnight incubation at 37° C., 5% CO2, the medium is removed. Then, the tissue models are incubated with the candidate peptide at 10 μg/ml at 37° C. and 5% CO2 for 24 hours. The tissue models are embedded in Tissue Teck OCT compound (Aname™). […]
The expression of p63 is evaluated by immunohistochemistry with a specific primary antibody and a fluorescently labelled secondary antibody. […] At the end of the incubation, slides are washed with PBS and are incubated with Alexa Fluor® 488 Goat anti-rabbit IgG (H+L) secondary antibody (Invitrogen, green fluorescence emission dye) 1 hour at room temperature in a dark humidified chamber. […]
Microscopical observations are performed with a Zeiss fluorescence microscope and photographs of each condition are taken with the associated camera. From each fluorescence image of p63, values of the product of Mean Intensity and Area are quantified and normalized by control (basal condition, treated with SkinEthic Growth Medium). […]

- Fold induction respect to basal conditions ([1]; 0.001 mg/ml): 0.91 ± 0.05
- Fold induction respect to basal conditions ([1]; 0.005 mg/ml): 0.65 ± 0.08
- Fold induction respect to basal conditions ([1]; 0.01 mg/ml): 0.65 ± 0.07
- Fold induction respect to basal conditions ([2]; 0.001 mg/ml): 1.66 ± 0.18
- Fold induction respect to basal conditions ([2]; 0.005 mg/ml): 2.42 ± 0.50
- Fold induction respect to basal conditions ([2]; 0.01 mg/ml): 1.71 ± 0.40
- Fold induction respect to basal conditions ([3]; 0.001 mg/ml): 1.62 ± 0.18
- Fold induction respect to basal conditions ([3]; 0.005 mg/ml): 3.00 ± 0.55
- Fold induction respect to basal conditions ([3]; 0.01 mg/ml): 2.81 ± 0.26
- Fold induction respect to basal conditions ([4]; 1 experiment): 1.63 ± 0.16
- Fold induction respect to basal conditions ([4]; mean of four experiments): 2.11 ± 0.23
Substance: Ac-QEMRMQ-OH [DD14024, Ac-Gln-Glu-Met-Arg-Met-Gln-OH]
